Series [1] can be described thus: Pharmacokinetic modeling of active element (iodine or tantalum) concentration in pig blood/plasma after contrast agent injection. The series is classed as in vivo. The settings on record: plasma, other: injection. From the text:
Given this illustration of endothelial permeability, it may be appreciated that, immediately after administration, small-molecule contrast agents begin to distribute from the blood pool into interstitial fluid. Due to this “distribution phase”, the concentration of the contrast agent in the blood pool becomes immediately diluted by a factor of two or more in the first minutes after injection. This is illustrated in FIG. 3 where the concentration of the contrast agent iopromide in pig plasma is illustrated as a function of time, with both a distribution phase and elimination phase being evident.
This distribution occurs at a relatively fast rate, with a half-life (T½a) on the order of minutes and is denoted as the distribution phase in FIG. 3. […] Therefore, the concentration of the molecule in the blood would decrease approximately four fold in much less than 10 minutes due to this initial distribution process alone. However, the drug is simultaneously cleared from the blood by the kidneys at a slower rate, with a T½ on the order of 1-2 hours (denoted as the elimination phase in FIG. 3), resulting in an additional lowering of the concentration in the blood.
In a separate analysis, PK modeling was obtained by analyzing the concentration of the active element (iodine or tantalum) in blood samples taken from 2 to 240 minutes after contrast agent injection. […]

Series [2] is described as follows: Contrast-enhanced liver CT scans of swine in fat-equivalent encasements, multi-reader image quality assessment. The format is in vivo. As to conditions: swine CT in adipose-equivalent encasements, relative to TaCZ, FIG. 6. Here is the method:
The scans were performed one day to one week apart, and the scan sequence was randomized. During scanning, the pigs were encased in plastic fat-equivalent encasements to emulate a range of large patient sizes. Scans were performed in the pigs' livers at several time points from 30 to 300 seconds after injection. Image quality at each time point was graded by radiologists using predefined criteria such as image contrast in specified vessels.
In FIG. 6, images 220 on the left were acquired using a conventional iodinated contrast agent, iopromide, while images 220 on the right were acquired using the TaCZ nanoparticle contrast agent described above. Vertically, the images are arranged based on patient size.
In FIG. 7, the results of the multi-reader assessment are provided in graphical form.

Read-outs that look alike come from different tables or passages of the source. Some results are limits rather than exact numbers.

On to `COCC(=O)Nc1c(I)c(C(=O)NCC(O)CO)c(I)c(C(=O)N(C)CC(O)CO)c1I` (stereo not drawn) [iopromide], for which the half-life in series [1] (FIG. 3, read-out: distribution-phase half-life (T½a) in plasma) was below 0.0833 h; in series [1] (cleared from the blood by the kidneys, FIG. 3, read-out: clearance half-life T½ (elimination phase)), 1 to 2 h. Moreover, the “image contrast enhancement as patient size (and X-ray energy) increases” value in series [2] is “decreases”.

One may read the half-life as the time needed for the level to fall by half in the phase considered.

For the origin of these results see patent US20190001002A1, “DRUG DESIGN FOR APPLICATION-DEPENDENT PAYLOAD, CONTROLLED PHARMACOKINETIC DISTRIBUTION, AND RENAL CLEARANCE” (General Electric Company, priority 2017, published 2019).
